Inhibition data for 21 compounds are collected here from article PMC6017136, “Efficient Synthesis and Bioactivity of Novel Triazole Derivatives” (Molecules : A Journal of Synthetic Chemistry and Natural …, 2018).

Structures are written as SMILES.

Assay in all cases: microbe, parasite or virus in culture
The subject of assay [1] is Sclerotinia sclerotiorum (Lib.) de Bary. The settings on record: read-out: Inhibition Ratio (%) / S. sclerotiorum.
In assay [2] the test system is Fusarium oxysporum Schl. F.sp. vasinfectum (Atk.) Snyd. & Hans. The settings on record: read-out: Inhibition Ratio (%) / Fusarium oxysporum Schl. F.sp. vasinfectum (Atk.) Snyd. & Hans.
In the next assay the test system is Pyricularia oryzae Cav. The settings on record: read-out: Inhibition Ratio (%) / Pyricularia oryzae Cav.
For a further assay, the system named is Botrytis cinerea Pers. The settings on record: read-out: Inhibition Ratio (%) / B. cinerea.
The test system of assay [3] is Phytophthora capsici P. CapasiciLeonian. The settings on record: read-out: Inhibition Ratio (%) / P. CapasiciLeonian.

Consider `CO[C@@H]1[C@H]2OC(C)(C)O[C@H]2O[C@@H]1Cn1cc(-c2ccc(Cl)cc2)nn1` [1-f, Furan glucosyl-1,2,3-triazole (1-f)], for which the inhibition at 50 µg/mL in assay [1] turned out to be 85.1%; in assay [2] it was 89%; in the assay with Pyricularia oryzae Cav., 82.4%; in the assay with Botrytis cinerea Pers it was 71%; in assay [3], 81.2%.

Take `CO[C@H]1[C@@H](Cn2cc(-c3ccccc3)nn2)OC(O)[C@@H]1O` (stereo partly drawn) [3-a, Furan glucosyl-1,2,3-triazole (3-a)]: the inhibition at 50 µg/mL in assay [1] came out at 30.3%; in assay [2] it was 58.7%; with Pyricularia oryzae Cav., 61.2%; in the assay on Botrytis cinerea Pers, 33.3%; in assay [3], 40.1%.

Regarding `CO[C@H]1[C@@H](Cn2cc(-c3cccc(C)c3)nn2)OC(O)[C@@H]1O` (stereo partly drawn) [3-b, Furan glucosyl-1,2,3-triazole (3-b)], the inhibition at 50 µg/mL in assay [1] was determined as 28.4%; in assay [2], 34.1%; with Pyricularia oryzae Cav. it was 35.4%; with Botrytis cinerea Pers, 15.3%; in assay [3] it was 35.6%.

With `COc1ccc(-c2cn(C[C@H]3OC(O)[C@H](O)[C@H]3OC)nn2)cc1` (stereo partly drawn) [3-c, Furan glucosyl-1,2,3-triazole (3-c)], the inhibition at 50 µg/mL in assay [1] turned out to be 31.5%; in assay [2] it was 29.3%; in the assay with Pyricularia oryzae Cav., 30.1%; in the assay on Botrytis cinerea Pers it was 10.4%; in assay [3], 38.9%.

In the case of `CO[C@H]1[C@@H](Cn2cc(-c3ccc(F)cc3)nn2)OC(O)[C@@H]1O` (stereo partly drawn) [3-d, Furan glucosyl-1,2,3-triazole (3-d)], the inhibition at 50 µg/mL is 38.4% in assay [1]; 40.2% in assay [2]; 47.8% in the assay on Pyricularia oryzae Cav.; 19.1% with Botrytis cinerea Pers; 50.2% in assay [3].

Turning to `CO[C@H]1[C@@H](Cn2cc(-c3ccc([N+](=O)[O-])cc3)nn2)OC(O)[C@@H]1O` (stereo partly drawn) [3-e, Furan glucosyl-1,2,3-triazole (3-e)], the inhibition at 50 µg/mL came out at 39.6% in assay [1]; 25.6% in assay [2]; 23.1% in the assay on Pyricularia oryzae Cav.; 17.1% with Botrytis cinerea Pers; 44.7% in assay [3].

Regarding `CO[C@H]1[C@@H](Cn2cc(-c3ccc(Cl)cc3)nn2)OC(O)[C@@H]1O` (stereo partly drawn) [3-f, Furan glucosyl-1,2,3-triazole (3-f)], the inhibition at 50 µg/mL in assay [1] was 25.3%; in assay [2], 57.6%; in the assay with Pyricularia oryzae Cav. it was 50.7%; in the assay on Botrytis cinerea Pers it was 20.5%; in assay [3] it was 46.8%.

`CO[C@H]1[C@@H](Cn2cc(C(C)O)nn2)OC(O)[C@@H]1O` (stereo partly drawn) [3-g, Furan glucosyl-1,2,3-triazole (3-g)]: the inhibition at 50 µg/mL in assay [1] was found to be 13.7%; in assay [2] it was 23.4%; with Pyricularia oryzae Cav. it was 21.5%; in the assay with Botrytis cinerea Pers it was 11.5%; in assay [3], 23.1%.

Consider `OC1O[C@H](Cn2cc(-c3ccccc3)nn2)[C@H](OCc2ccccc2)[C@H]1O` (stereo partly drawn) [4-a, Furan glucosyl-1,2,3-triazole (4-a)], for which the inhibition at 50 µg/mL is 26.4% in assay [1]; 35.4% in assay [2]; 37.8% in the assay with Pyricularia oryzae Cav.; 19.5% with Botrytis cinerea Pers; 21.2% in assay [3].

For `Cc1cccc(-c2cn(C[C@H]3OC(O)[C@H](O)[C@H]3OCc3ccccc3)nn2)c1` (stereo partly drawn) [4-b, Furan glucosyl-1,2,3-triazole (4-b)], the inhibition at 50 µg/mL in assay [1] was 29.9%; in assay [2] it was 27.1%; in the assay on Pyricularia oryzae Cav., 27.8%; with Botrytis cinerea Pers, 10.9%; in assay [3] it was 29.6%.

As to `OC1O[C@H](Cn2cc(-c3ccc(F)cc3)nn2)[C@H](OCc2ccccc2)[C@H]1O` (stereo partly drawn) [4-d, Furan glucosyl-1,2,3-triazole (4-d)], the inhibition at 50 µg/mL in assay [1] is 34.7%; in assay [2], 37.8%; in the assay with Pyricularia oryzae Cav., 35.6%; in the assay on Botrytis cinerea Pers, 20.3%; in assay [3] it was 35.4%.

In the case of `OC1O[C@H](Cn2cc(-c3ccc(Cl)cc3)nn2)[C@H](OCc2ccccc2)[C@H]1O` (stereo partly drawn) [4-f, Furan glucosyl-1,2,3-triazole (4-f)], the inhibition at 50 µg/mL in assay [1] was 31.7%; in assay [2], 43.1%; in the assay with Pyricularia oryzae Cav., 40.2%; in the assay on Botrytis cinerea Pers it was 22.2%; in assay [3], 38.7%.

Consider `CC(O)c1cn(C[C@H]2OC(O)[C@H](O)[C@H]2OCc2ccccc2)nn1` (stereo partly drawn) [4-g, Furan glucosyl-1,2,3-triazole (4-g)], for which the inhibition at 50 µg/mL in assay [1] was determined as 13.5%; in assay [2], 20.9%; in the assay on Pyricularia oryzae Cav. it was 21.3%; in the assay on Botrytis cinerea Pers, 12.1%; in assay [3] it was 24.5%.

As to `CO[C@H]1C(Cn2cc(-c3ccccc3)nn2)OC(OC(C)=O)[C@@H]1OC(C)=O` (stereo partly drawn) [5-a, Furan glucosyl-1,2,3-triazole (5-a)], the inhibition at 50 µg/mL in assay [1] was 57.6%; in assay [2], 61.3%; with Pyricularia oryzae Cav. it was 62.7%; in the assay on Botrytis cinerea Pers, 36.1%; in assay [3], 42.3%.

For the compound `COc1ccc(-c2cn(C[C@H]3OC(OC(C)=O)[C@H](OC(C)=O)[C@H]3OC)nn2)cc1` (stereo partly drawn) [5-c, Furan glucosyl-1,2,3-triazole (5-c)], the inhibition at 50 µg/mL in assay [1] amounted to 43.1%; in assay [2], 30%; in the assay with Pyricularia oryzae Cav. it was 40.8%; in the assay with Botrytis cinerea Pers it was 19.2%; in assay [3], 47.2%.

Turning to `CO[C@H]1[C@@H](Cn2cc(-c3ccc(F)cc3)nn2)OC(OC(C)=O)[C@@H]1OC(C)=O` (stereo partly drawn) [5-d, Furan glucosyl-1,2,3-triazole (5-d)], the inhibition at 50 µg/mL was determined as 67.6% in assay [1]; 70.9% in assay [2]; 69.2% in the assay with Pyricularia oryzae Cav.; 23.2% in the assay with Botrytis cinerea Pers; 65.2% in assay [3].

As for `CO[C@H]1[C@@H](Cn2cc(-c3ccc([N+](=O)[O-])cc3)nn2)OC(OC(C)=O)[C@@H]1OC(C)=O` (stereo partly drawn) [5-e, Furan glucosyl-1,2,3-triazole (5-e)], the inhibition at 50 µg/mL in assay [1] was determined as 64.9%; in assay [2] it was 69.5%; in the assay with Pyricularia oryzae Cav., 56.9%; in the assay with Botrytis cinerea Pers, 22.1%; in assay [3] it was 67.7%.

Regarding `CO[C@H]1[C@@H](Cn2cc(-c3ccc(Cl)cc3)nn2)OC(OC(C)=O)[C@@H]1OC(C)=O` (stereo partly drawn) [5-f, Furan glucosyl-1,2,3-triazole (5-f)], the inhibition at 50 µg/mL was determined as 56.1% in assay [1]; 71.5% in assay [2]; 60.5% in the assay with Pyricularia oryzae Cav.; 27.6% in the assay on Botrytis cinerea Pers; 68.2% in assay [3].

On to `CC(=O)OC1O[C@H](Cn2cc(-c3ccc(F)cc3)nn2)[C@H](OCc2ccccc2)[C@H]1OC(C)=O` (stereo partly drawn) [6-d, Furan glucosyl-1,2,3-triazole (6-d)], for which the inhibition at 50 µg/mL in assay [1] was determined as 64.7%; in assay [2] it was 58.6%; in the assay on Pyricularia oryzae Cav., 50.2%; in the assay with Botrytis cinerea Pers it was 26.7%; in assay [3] it was 57.1%.

As to `CC(=O)OC1O[C@H](Cn2cc(-c3ccc([N+](=O)[O-])cc3)nn2)[C@H](OCc2ccccc2)[C@H]1OC(C)=O` (stereo partly drawn) [6-e, Furan glucosyl-1,2,3-triazole (6-e)], the inhibition at 50 µg/mL in assay [1] worked out at 56.3%; in assay [2] it was 59.3%; in the assay with Pyricularia oryzae Cav., 48.9%; with Botrytis cinerea Pers it was 27.4%; in assay [3] it was 50.3%.

`N#Cc1c(Cl)c(Cl)c(Cl)c(C#N)c1Cl` [Chlorothalonil]: the inhibition at 50 µg/mL in assay [1] is 95.5%; in assay [2], 94.2%; with Pyricularia oryzae Cav., 89.2%; with Botrytis cinerea Pers it was 98%; in assay [3], 94.2%.
